{"source": "patent US5248680A", "about": "“Zwitterionic compounds and their n-halo derivatives for use in the treatment of clinical conditions” (Bloomfield D.A., priority 1990, dated 1993)", "key": {"neutrophils [1]": {"system": "neutrophils", "assay": "Hypochlorous acid production by neutrophils", "format": "cell-based", "details": "Homo sapiens, Neutrophil, 10 mM HEPES, mean ± S.E.M.", "description": "(§1) Patients were selected with mild to moderate plaque-type psoriasis on the basis of clinical and histological evidence of disease. Normal volunteers were selected from laboratory personnel without personal or family history of inflammatory disease. Disease control groups included: a) patients with eczema, acne and dermatitis herpetiformis; and b) patients with Crohn's disease and ulcerative colitis.\n(§2) Blood samples from each subject were drawn into sodium heparin Vacutainers® (Vacutainer is a Trade Mark). The inflammatory cells (neutrophils) were isolated by dextran sedimentation and FICOLL-PAQUE®(FICOLL-PLAQUE is a Trade Mark) gradient centrifugation. Viability and purity were assessed by fluorescence microscopy, using ethidium bromide and acridine orange staining."}, "[2]": {"system": "carrageenan induced paw oedema", "assay": "Carrageenan-induced paw oedema in rats", "format": "in vivo, rat", "procedure": "The studies were conducted on inbred Wistar strain albino rats (120-180 g) of either sex. The rats were housed in colony cages at an ambient temperature of 25°±2° C. and fed on standard pellet chow. The rats were anaesthetized using pentobarbitone sodium, their hind paws were marked and the volume measured. […] The control animals were injected with 10 μl of 0.9% saline solution. […] One hour following the carrageenan injection the hind paw volume was measured again. A 5 ml blood sample was taken from each animal into sodium heparin Vacutainers. Chemiluminescence activity was assayed in the PBMC isolated from each animal.\nThese studies were also conducted on inbred Wistar strain albino rats (120-180 g) of either sex. The rats were anaesthetized using pentobarbitone sodium prior to marking each hind paw and measuring paw volume. […] The control animals received 0.5 ml of 0.9% NaCl subcutaneously. 30 min after the injections were administered, paw oedema was induced using carrageenan. One hour following carrageenan administration the hind paw volume was measured. A 5 ml blood sample was taken from each animal into sodium heparin Vacutainers and used for chemiluminescence measurement."}, "monocytes": {"system": "monocytes", "assay": "Leukotriene B4 in stimulated monocytes", "format": "cell-based, human", "details": "preincubation with 10 mM HEPES or 40 mM taurine; data not shown", "description": "(§3) It was therefore proposed to test the hypothesis that HEPES could inactivate leukotriene B4 by indirect stimulation of MPO leading to increased production of hypochlorous acid from cellular hydrogen peroxide."}, "neutrophils [3]": {"system": "neutrophils", "assay": "Degranulation of lysosomal enzymes by neutrophils stimulated with calcium ionophore", "format": "cell-based, human", "details": "for activity at 10000 µM: Homo sapiens, Neutrophil, 10 mM HEPES, mean", "description": "as §1, §2\nStimulation of the inflammatory process in neutrophils, not only activates the respiratory burst, but as a consequence, is also associated with release of lysosomal enzymes from the cells in a process called degranulation. Degranulation of lysosomal enzymes was stimulated in neutrophils from each group of subjects, using calcium ionophore as inflammatory stimulant."}, "[4]": {"assay": "Skin penetration and percutaneous absorption of 14C-HEPES after a single topical dose", "format": "in vivo, human", "details": "for Mean urinary excretion of radioactivity: mean (S.D.), up to 120 hours", "procedure": "The skin penetration and percutaneous absorption of radioactivity following topical administration of a single does of ^14 C-HEPES (approximately 100 mg 5% cream containing 70 uCi ^14 C) was investigated in two groups of six healthy male volunteers. The dose was applied to intact skin in one group and to skin stripped 10 times with scotch tape in the second group. The unabsorbed material was removed after 12 hours and the area of application was stripped 10 times in order to determine skin penetration. Blood, urine and faeces samples were collected up to 120 hours after dose application for assessment of total radioactivity."}, "myeloperoxidase [5]": {"system": "myeloperoxidase", "assay": "Myeloperoxidase activity of neutrophils after preincubation with zwitterion", "format": "cell-based, human", "details": "10 mM HEPES, mean ± S.E.M.", "description": "as §1, §2"}, "catalase": {"system": "catalase", "assay": "Catalase activity of neutrophils after preincubation", "format": "cell-based, human", "details": "neutrophils preincubated with HEPES or taurine; data not shown"}, "myeloperoxidase [6]": {"system": "myeloperoxidase", "assay": "Binding of zwitterion to myeloperoxidase (preliminary studies)"}, "neutrophils [7]": {"system": "neutrophils", "assay": "Leukotriene B4 in supernatants of stimulated neutrophils", "format": "cell-based, human", "details": "10 mM HEPES, mean ± S.E.M.; for activity at 10000 µM: Homo sapiens, Neutrophil, read-out: Leukotriene B4 production by neutrophils", "description": "as §1, §2, §3\nFor the methodology used in the in vitro studies hereinafter described reference should be made to McLoughlin, D. M. et al. Biochem. Soc. Trans. (1991) 19:73-78 hereby incorporated by reference, except where otherwise stated."}, "[8]": {"system": "peripheral blood neutrophils", "assay": "Chemiluminescence (reactive oxidant production) of peripheral blood neutrophils stimulated with calcium ionophore", "format": "cell-based", "details": "Homo sapiens, Neutrophil, 10 mM HEPES, mean ± S.E.M., read-out: Chemiluminesence production by neutrophils", "description": "Patients were selected with mild to moderate plaque-type psoriasis on the basis of clinical and histological evidence of disease. Normal volunteers were selected from laboratory personnel without personal or family history of inflammatory disease. Disease control groups included: a) patients with eczema, acne and dermatitis herpetiformis; and b) patients with Crohn's disease and ulcerative colitis. Blood samples from each subject were drawn into sodium heparin Vacutainers® (Vacutainer is a Trade Mark). The inflammatory cells (neutrophils) were isolated by dextran sedimentation and FICOLL-PAQUE®(FICOLL-PLAQUE is a Trade Mark) gradient centrifugation. Viability and purity were assessed by fluorescence microscopy, using ethidium bromide and acridine orange staining. […] Chemiluminescence activity of the peripheral blood neutrophils was tested using the method of Bloomfield, F. J. and Young, M. M. (Inflammation, (1982) 6, 257, hereby incorporated by reference), using calcium ionophore (2μ Molar) as stimulant instead of opsonized zymosan. Chemiluminescence is a measure of the production of reactive oxidants by neutrophils in response to an inflammatory stimulus. It was observed that there was significant reduction in chemiluminescence activity by neutrophils in the taurine-treated and HEPES-treated cells compared to control cells in all groups."}, "[9]": {"details": "Normal + iodide (1 mM potassium iodide)"}}, "note": "Read-outs that look alike come from different tables or passages of the source."}
{"smiles": "O=S(=O)(O)CCN1CCN(CCO)CC1", "note": "[HEPES, N-2-hydroxyethylpiperazine-N'-2-ethanesulphonic acid]", "values": [{"measurement": "activity at 10000 µM", "setting": "neutrophils [1]; Normal", "result": "211 ± 12.5", "unit": "%"}, {"measurement": "activity at 10000 µM", "setting": "neutrophils [1]; Psoriasis", "result": "193 ± 10.7", "unit": "%"}, {"measurement": "activity at 10000 µM", "setting": "neutrophils [1]; disease controls (a)", "result": "152 ± 8.3", "unit": "%"}, {"measurement": "percentage increase in paw volume", "setting": "[2]; I.P. 500 μg HEPES, 1 h after carrageenan, mean ± S.E.M.", "result": "23 ± 4 percentage increase in paw volume"}, {"measurement": "reduction in paw oedema", "setting": "[2]; intraperitoneal 500 μg HEPES, versus control", "result": 50, "unit": "%"}, {"measurement": "reduction of leukotriene B4 in monocytes", "setting": "monocytes", "result": "also demonstrated in monocytes"}, {"measurement": "activity at 10000 µM", "setting": "neutrophils [3]; Normal", "result": 104, "unit": "%"}, {"measurement": "activity at 10000 µM", "setting": "neutrophils [3]; Psoriasis", "result": 104, "unit": "%"}, {"measurement": "activity at 10000 µM", "setting": "neutrophils [3]; disease controls (a)", "result": 87.2, "unit": "%"}, {"measurement": "degranulation by preincubated neutrophils compared to control cells", "setting": "neutrophils [3]; result in words, taurine data not shown", "result": "no difference in degranulation"}, {"measurement": "tolerability of single topical dose", "setting": "[4]; intact and stripped skin groups", "result": "well tolerated"}, {"measurement": "Mean urinary excretion of radioactivity", "setting": "[4]; intact skin group", "result": "0.07+0.08% of the applied dose"}, {"measurement": "radioactivity in 48-72 hour faecal sample", "setting": "[4]; one subject of the stripped skin group", "result": "0.11 % of the applied dose"}, {"measurement": "abnormalities in biochemistry, haematology and urinalysis screens", "setting": "[4]; single topical dose", "result": "not considered to be related"}, {"measurement": "radioactivity in plasma or faecal samples", "setting": "[4]; single topical dose approx. 100 mg 5% cream, intact and stripped skin groups, samples up to 120 hours", "result": "No radioactivity was detected"}, {"measurement": "Mean urinary excretion of radioactivity", "setting": "[4]; stripped skin group", "result": "0.20±0.22% of the applied dose"}, {"measurement": "Myeloperoxidase activity of neutrophils", "setting": "myeloperoxidase [5]; Normal", "result": "228 ± 25.4 percentage activity of control"}, {"measurement": "Myeloperoxidase activity of neutrophils", "setting": "myeloperoxidase [5]; Psoriasis", "result": "247 ± 30.1 percentage activity of control"}, {"measurement": "Myeloperoxidase activity of neutrophils", "setting": "myeloperoxidase [5]; disease controls (a)", "result": "198 ± 17.1 percentage activity of control"}, {"measurement": "Myeloperoxidase activity of neutrophils", "setting": "myeloperoxidase [5]; disease controls (b)", "result": "211 ± 56.4 percentage activity of control"}, {"measurement": "effect on catalase activity", "setting": "catalase", "result": "no effect on catalase activity"}, {"measurement": "binding to the enzyme (MPO)", "setting": "myeloperoxidase [6]", "result": "did not bind to the enzyme"}, {"measurement": "Leukotriene B4 production by neutrophils", "setting": "neutrophils [7]; [9]", "result": "no measurable leukotriene B4"}, {"measurement": "activity at 10000 µM", "setting": "neutrophils [7]; [9]", "result": 0, "unit": "%"}, {"measurement": "activity at 10000 µM", "setting": "neutrophils [7]; Normal", "result": "55.8 ± 8.9", "unit": "%"}, {"measurement": "activity at 10000 µM", "setting": "neutrophils [7]; Psoriasis", "result": "22.4 ± 6.62", "unit": "%"}, {"measurement": "activity at 10000 µM", "setting": "neutrophils [7]; disease controls (a)", "result": "24.9 ± 8.99", "unit": "%"}, {"measurement": "activity at 10000 µM", "setting": "neutrophils [7]; disease controls (b)", "result": "16.7 ± 6.42", "unit": "%"}, {"measurement": "activity at 10000 µM", "setting": "[8]; Normal", "result": "28.8 ± 4.24", "unit": "%"}, {"measurement": "activity at 10000 µM", "setting": "[8]; Psoriasis", "result": "26.9 ± 3.25", "unit": "%"}, {"measurement": "activity at 10000 µM", "setting": "[8]; disease controls (a) eczema, acne, dermatitis herpetiformis", "result": "28.8 ± 3.84", "unit": "%"}, {"measurement": "activity at 10000 µM", "setting": "[8]; disease controls (b) Crohn's disease, ulcerative colitis", "result": "25.4 ± 6.4", "unit": "%"}]}
